Data: patent US9296725B2, “Heterocyclyl pyrimidine analogues as TYK2 inhibitors” (Cellzome Limited, priority 2012, dated 2016)
Like-named read-outs stand apart in the source and are kept apart here.

Columns and labels:
[1] = biological target: T1, JAK2 (Homo sapiens, UniProt O60674); assay: Kinobeads assay, JAK2 (competition binding in mixed Molt4/Ramos cell lysate, dot blot detection); conditions: read-out: JAK2 Band (Kinobeads assay potency, IC50)
T1 construct: endogenous in cells; host or cells: Molt4 (ATCC CRL-1582) and Ramos (ATCC CRL-1596), mixed lysate 1:2
In short: (§1)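 Competition binding: compound dilutions (1:3 series, 9 steps) plus immobilized aminopyrido-pyrimidine beads incubated 3 h in the cold with mixed Molt4/Ramos lysate (1:2) at 10 mg/mL protein. Bead-bound JAK2/TYK2 eluted and quantified by antibody dot blot with infrared detection; IC50 from dose-response curves.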

[2] = biological target: T2, TYK2 (Homo sapiens, UniProt P29597); assay: Kinobeads assay, TYK2 (competition binding in mixed Molt4/Ramos cell lysate, dot blot detection)
T2 construct: endogenous in cells; host or cells: Molt4 (ATCC CRL-1582) and Ramos (ATCC CRL-1596), mixed lysate 1:2
In short: as §1

[3] = Kinobeads assay, Molt4/Ramos lysate, read-out: TYK2 Band (Kinobeads assay potency, IC50)

T2 sequence (P29597 whole entry): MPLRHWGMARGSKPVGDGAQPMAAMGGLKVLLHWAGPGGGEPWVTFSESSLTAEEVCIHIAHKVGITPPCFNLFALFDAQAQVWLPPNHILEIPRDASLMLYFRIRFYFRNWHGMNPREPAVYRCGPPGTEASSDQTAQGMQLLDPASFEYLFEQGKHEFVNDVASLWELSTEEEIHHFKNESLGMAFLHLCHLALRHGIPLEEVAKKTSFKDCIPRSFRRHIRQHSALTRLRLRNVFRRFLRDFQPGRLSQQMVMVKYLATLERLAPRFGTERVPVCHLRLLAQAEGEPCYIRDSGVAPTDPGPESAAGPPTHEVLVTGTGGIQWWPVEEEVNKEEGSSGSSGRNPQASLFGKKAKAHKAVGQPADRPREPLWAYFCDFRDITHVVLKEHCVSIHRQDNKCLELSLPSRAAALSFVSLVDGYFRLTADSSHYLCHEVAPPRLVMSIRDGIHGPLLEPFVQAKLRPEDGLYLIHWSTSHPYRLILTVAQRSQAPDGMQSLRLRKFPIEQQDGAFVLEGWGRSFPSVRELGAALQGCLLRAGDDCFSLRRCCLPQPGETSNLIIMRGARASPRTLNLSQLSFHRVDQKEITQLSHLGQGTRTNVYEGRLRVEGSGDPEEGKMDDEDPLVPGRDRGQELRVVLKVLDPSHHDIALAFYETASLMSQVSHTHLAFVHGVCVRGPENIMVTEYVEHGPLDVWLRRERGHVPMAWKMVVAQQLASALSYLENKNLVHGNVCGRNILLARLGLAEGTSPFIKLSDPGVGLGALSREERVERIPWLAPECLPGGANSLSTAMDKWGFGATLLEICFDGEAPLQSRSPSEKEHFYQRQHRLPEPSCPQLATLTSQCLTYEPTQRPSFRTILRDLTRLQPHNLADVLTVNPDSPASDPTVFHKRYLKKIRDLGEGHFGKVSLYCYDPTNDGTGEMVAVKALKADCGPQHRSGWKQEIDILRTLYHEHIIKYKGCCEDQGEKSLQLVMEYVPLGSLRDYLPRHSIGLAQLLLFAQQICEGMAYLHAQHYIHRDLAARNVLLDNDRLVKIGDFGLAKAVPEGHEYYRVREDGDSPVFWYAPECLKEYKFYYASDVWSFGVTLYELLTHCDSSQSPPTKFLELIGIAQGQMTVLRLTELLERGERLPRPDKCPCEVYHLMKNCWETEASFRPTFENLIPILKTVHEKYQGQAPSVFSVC
T1 sequence (O60674 whole entry): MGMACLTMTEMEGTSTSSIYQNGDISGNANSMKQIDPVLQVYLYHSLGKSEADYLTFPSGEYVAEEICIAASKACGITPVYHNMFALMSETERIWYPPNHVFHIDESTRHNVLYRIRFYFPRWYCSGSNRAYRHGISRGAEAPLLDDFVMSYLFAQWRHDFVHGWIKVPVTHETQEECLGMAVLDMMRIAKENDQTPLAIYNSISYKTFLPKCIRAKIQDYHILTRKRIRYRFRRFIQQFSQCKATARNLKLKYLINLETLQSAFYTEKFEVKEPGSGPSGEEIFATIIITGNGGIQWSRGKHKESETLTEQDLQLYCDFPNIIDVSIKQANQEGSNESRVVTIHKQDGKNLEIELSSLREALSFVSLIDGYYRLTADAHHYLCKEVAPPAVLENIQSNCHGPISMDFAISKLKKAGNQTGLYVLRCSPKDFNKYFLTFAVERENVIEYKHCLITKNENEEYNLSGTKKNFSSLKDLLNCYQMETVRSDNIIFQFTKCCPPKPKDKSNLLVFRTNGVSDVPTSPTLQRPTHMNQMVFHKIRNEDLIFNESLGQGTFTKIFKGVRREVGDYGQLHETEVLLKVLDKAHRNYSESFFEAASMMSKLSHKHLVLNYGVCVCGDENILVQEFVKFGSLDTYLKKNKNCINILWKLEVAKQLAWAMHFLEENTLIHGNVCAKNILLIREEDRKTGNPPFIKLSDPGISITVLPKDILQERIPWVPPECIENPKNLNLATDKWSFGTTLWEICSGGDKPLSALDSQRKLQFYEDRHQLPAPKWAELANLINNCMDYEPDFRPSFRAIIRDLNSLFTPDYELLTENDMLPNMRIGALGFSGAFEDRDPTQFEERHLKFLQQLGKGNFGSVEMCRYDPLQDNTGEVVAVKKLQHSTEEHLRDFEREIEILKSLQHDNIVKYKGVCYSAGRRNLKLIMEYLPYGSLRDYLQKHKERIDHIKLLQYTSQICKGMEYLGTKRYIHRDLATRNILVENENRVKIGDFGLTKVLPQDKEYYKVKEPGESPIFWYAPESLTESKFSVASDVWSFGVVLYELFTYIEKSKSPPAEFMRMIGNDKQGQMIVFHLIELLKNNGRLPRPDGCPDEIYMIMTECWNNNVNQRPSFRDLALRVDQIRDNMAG

| SMILES | IC50 [1] [nM] | IC50 [2, 3] [nM] | IC50 ([2]; read-out: TYK2 IC50) [nM] |
| --- | --- | --- | --- |
| COc1ccc(F)c(CNc2nc(Nc3cnn(CCO)c3)ncc2C)c1F [Example I-304] | 10 to 100 | ≤ 10 | – |
| CNC(=O)Cn1cc(Nc2ncc(Cl)c(NCc3cccc(CS(C)(=O)=O)c3)n2)cn1 [Example I-445] | 1000 to 10000 | 100 to 1000 | – |
| Cn1cc(Nc2ncc(Cl)c(NCc3cc(Br)ccc3F)n2)cn1 [Example I-218] | 100 to 1000 | 100 to 1000 | – |
| C[C@H](O)Cn1cc(Nc2ncc(Cl)c(NCc3ccccc3F)n2)cn1 [Example I-257] | 100 to 1000 | 100 to 1000 | – |
| COc1ccc(F)c(CNc2ccnc(Nc3cnn(CC(=O)NCC(F)F)c3)n2)c1F [Example I-127] | 1000 to 10000 | 10 to 100 | – |
| CS(=O)(=O)NCc1cccc(CNc2nc(Nc3cnn(CC(=O)N4CCC[C@@H]4C#N)c3)ncc2Cl)c1 [Example I-399] | 1000 to 10000 | 100 to 1000 | – |
| OCCn1cc(Nc2ncc(Cl)c(NCc3cccc(OC(F)F)c3)n2)cn1 [Example I-322] | 1000 to 10000 | 10 to 100 | – |
| Cn1cc(Nc2ncc(Cl)c(NCc3cccc(Br)c3)n2)cn1 [Example I-163] | 1000 to 10000 | 100 to 1000 | – |
| CC(C)N(C)C(=O)Cn1cc(Nc2ncc(F)c(NCc3cccc(OC(F)F)c3)n2)cn1 [Example I-56] | > 10000 | 10 to 100 | – |
| C[C@H](CO)NC(=O)Cn1cc(Nc2nccc(NCc3c(Cl)ccc(Cl)c3F)n2)cn1 [Example I-131] | 100 to 1000 | 10 to 100 | – |
| CNC(=O)Cn1cc(Nc2ncc(Cl)c(NCc3cc(F)cc(F)c3)n2)cn1 [Example I-190] | 100 to 1000 | 100 to 1000 | – |
| COc1ccc(F)c(CNc2ccnc(Nc3cnn(CC(=O)NCCF)c3)n2)c1F [Example I-126] | 1000 to 10000 | 10 to 100 | – |
| O=C(Cn1cc(Nc2ncc(Cl)c(NCc3ccccc3)n2)cn1)N1CCOCC1 [Example I-160] | 1000 to 10000 | 10 to 100 | – |
| NC(=O)Cn1cc(Nc2ncc(Cl)c(NCc3cc(Br)cc(F)c3F)n2)cn1 [Example I-261] | 100 to 1000 | 100 to 1000 | – |
| O=C(Cn1cc(Nc2ncc(F)c(NCc3c(F)cc(F)cc3F)n2)cn1)NC1CC1 [Example I-4, N-cyclopropyl-2-(4-((5-fluoro-4-((2,4,6-trifluorobenzyl)amino)pyrimidin-2-yl)amino)-1H-pyrazol-1-yl)acetamide] | 1000 to 10000 | 10 to 100 | – |
| CNC(=O)Cn1cc(Nc2ncc(Cl)c(NCc3ccccc3F)n2)cn1 [Example I-211] | 100 to 1000 | 100 to 1000 | – |
| COc1ccccc1CNc1nc(Nc2cnn(CC(N)=O)c2)ncc1Cl [Example I-321] | 1000 to 10000 | 100 to 1000 | – |
| CS(=O)(=O)c1ccc(F)c(CNc2nc(Nc3cnn(CC(N)=O)c3)ncc2Cl)c1 [Example I-100] | 100 to 1000 | 10 to 100 | – |
| CCNC(=O)Cn1cc(Nc2nccc(NCc3c(F)cc(F)cc3F)n2)cn1 [Example I-6, N-ethyl-2-(4-((4-((2,4,6-trifluorobenzyl)amino)pyrimidin-2-yl)amino)-1H-pyrazol-1-yl)acetamide] | 1000 to 10000 | 10 to 100 | – |
| COc1cc(F)c(CNc2nc(Nc3cnn(CC(=O)NC(C)C)c3)ncc2F)c(F)c1 [Example I-70] | > 10000 | 10 to 100 | – |
| CC(O)Cn1cc(Nc2ncc(Cl)c(NCc3cccc(F)c3F)n2)cn1 (centres unmarked) [Example I-215] | 100 to 1000 | 100 to 1000 | – |
| CN(C)S(=O)(=O)c1ccccc1CNc1nc(Nc2cnn(C)c2)ncc1Cl [Example I-474] | 100 to 1000 | 100 to 1000 | – |
| Cc1cnc(Nc2cnn(C)c2)nc1NCc1cc(F)cc(F)c1 [Example I-343] | 10 to 100 | 10 to 100 | – |
| OCCn1cc(Nc2ncc(Cl)c(NCc3cccc(F)c3C(F)(F)F)n2)cn1 [Example I-333] | 1000 to 10000 | 100 to 1000 | – |
| C[C@@H](CO)NC(=O)Cn1cc(Nc2nccc(NCc3c(F)cc(F)cc3Cl)n2)cn1 [Example I-132] | 1000 to 10000 | ≤ 10 | – |
| O=C(Cn1cc(Nc2nccc(NCc3c(F)cc(F)cc3F)n2)cn1)NCCO [Example I-89] | 1000 to 10000 | 10 to 100 | – |
| O=C(Cn1cc(Nc2ncc(F)c(NCc3c(Cl)cccc3Cl)n2)cn1)N1CCOCC1 [Example I-49] | 1000 to 10000 | 10 to 100 | – |

| SMILES | IC50 [1] [nM] | IC50 [2, 3] [nM] | IC50 ([2]; read-out: TYK2 IC50) [nM] |
| --- | --- | --- | --- |
| C[C@@H](CO)NC(=O)Cn1cc(Nc2nccc(NCc3c(Cl)cccc3Cl)n2)cn1 [Example I-3, (S)-2-(4-((4-((2,6-dichlorobenzyl)amino)pyrimidin-2-yl)amino)-1H-pyrazol-1-yl)-N-(1-hydroxypropan-2-yl)acetamide] | 1000 to 10000 | 10 to 100 | < 100 |
| CC(C)NC(=O)Cn1cc(Nc2ncc(F)c(NCc3c(Cl)ccc(Cl)c3F)n2)cn1 [Example I-82] | 100 to 1000 | 10 to 100 | – |
| C[C@@H](CO)NC(=O)Cn1cc(Nc2nccc(NCc3c(F)cncc3F)n2)cn1 [Example I-146] | > 10000 | 10 to 100 | – |
| Fc1ccccc1CNc1nc(Nc2cn[nH]c2)ncc1Cl [Example I-369] | 100 to 1000 | 100 to 1000 | – |
| CCNC(=O)c1cccc(CNc2nc(Nc3cnn(CCO)c3)ncc2Cl)c1 [Example I-241] | 1000 to 10000 | 100 to 1000 | – |
| Cn1cc(Nc2ncc(F)c(NCc3cccc(C#N)c3)n2)cn1 [Example I-183] | 1000 to 10000 | 10 to 100 | – |
| C[C@H]1COCCN1C(=O)Cn1cc(Nc2ncc(F)c(NCc3c(F)cc(F)cc3F)n2)cn1 [Example I-73] | 1000 to 10000 | ≤ 10 | – |
| O=C(Cn1cc(Nc2ncc(Cl)c(NCc3cccc(F)c3F)n2)cn1)N1CCOCC1 [Example I-178] | 100 to 1000 | 10 to 100 | – |
| CS(=O)(=O)c1cccc(CNc2nc(Nc3cnn(CC(N)=O)c3)ncc2Cl)c1 [Example I-439] | 100 to 1000 | 100 to 1000 | – |
| Clc1cnc(Nc2cn[nH]c2)nc1NCc1ccccc1 [Example I-201] | 1000 to 10000 | 100 to 1000 | – |
| Cc1cnc(Nc2cnn(C)c2)nc1NCc1c(F)cccc1F [Example I-418] | 100 to 1000 | 10 to 100 | – |
| O=C(O)Cn1cc(Nc2ncc(Cl)c(NCc3ccccc3)n2)cn1 [Example I-222] | 1000 to 10000 | 100 to 1000 | – |
| CC(C)NC(=O)Cn1cc(Nc2nccc(NCc3c(F)cncc3F)n2)cn1 [Example I-145] | > 10000 | ≤ 10 | – |
| Cc1cnc(Nc2cnn(CC(=O)N3CCOC(C)(C)C3)c2)nc1NCc1c(F)cc(F)cc1F [Example I-34] | 1000 to 10000 | ≤ 10 | – |
| CC(NC(=O)Cn1cc(Nc2nccc(NCc3c(F)cc(F)cc3F)n2)cn1)C(F)F (centres unmarked) [Example I-149] | > 10000 | 10 to 100 | – |
| Cn1cc(Nc2ncc(Cl)c(NCc3cc(F)cc(C(F)(F)F)c3)n2)cn1 [Example I-166] | 1000 to 10000 | 100 to 1000 | – |
| OCCn1cc(Nc2ncc(Cl)c(NCc3cc(F)cc(C(F)(F)F)c3)n2)cn1 [Example I-181] | 1000 to 10000 | 100 to 1000 | – |
| CC(O)Cn1cc(Nc2ncc(Cl)c(NCc3ccccc3F)n2)cn1 (centres unmarked) [Example I-213] | 100 to 1000 | 100 to 1000 | – |
| CC(C)(CO)NC(=O)Cn1cc(Nc2nccc(NCc3c(F)cc(F)cc3F)n2)cn1 [Example I-460] | 1000 to 10000 | 10 to 100 | – |
| CC(C)NC(=O)Cn1cc(Nc2nccc(NCc3c(F)cccc3F)n2)cn1 [Example I-62] | > 10000 | 10 to 100 | < 100 |
| CNC(=O)Cn1cc(Nc2ncc(Cl)c(NCc3c(F)cc(F)cc3F)n2)cn1 [Example I-388] | 1000 to 10000 | 10 to 100 | – |
| Cc1cnc(Nc2cnn(CC(=O)NC3CC3)c2)nc1NCc1cc(F)ccc1F [Example I-346] | 100 to 1000 | 10 to 100 | – |
| Cc1cnc(Nc2cnn(CC(=O)NC3CC3)c2)nc1NCc1cc(F)cc(F)c1 [Example I-344] | 100 to 1000 | 10 to 100 | – |
| CNC(=O)Cn1cc(Nc2ncc(F)c(NCc3cccc(OC(F)F)c3)n2)cn1 [Example I-408] | > 10000 | 10 to 100 | – |
| Cc1cnc(Nc2cnn(CC(=O)N3CCOCC3)c2)nc1NCc1ccccc1 [Example I-296] | 1000 to 10000 | 10 to 100 | – |
| COc1cccc(CNc2nc(Nc3cnn(CC(=O)N(C)C)c3)ncc2Cl)c1 [Example I-244] | 1000 to 10000 | 100 to 1000 | – |
| Clc1cnc(Nc2cnn(Cc3ncco3)c2)nc1NCc1ccccc1 [Example I-249] | 1000 to 10000 | 1000 to 10000 | – |
